Results reported in US20070123466A1, “Method of treating recurrent miscarriages” (New York Society for the Ruptured and Crippled Maintaining …, priority 2003, published 2007).

Tests used:
Assay type in all cases: in vivo, mouse
[1] = test system: DBA/2-mated CBA/J mice; experiment: Fetal resorption in DBA/2-mated CBA/J mice, murine model of spontaneous recurrent miscarriage
Description: Female mice were allowed to mate with previously isolated male mice. The groups in the present experiment comprised 7-20 animals, one group of DBA/2-mated CBA/J mice and two controls (CBA×Balb/c and Balb/c×Balb/c). After mating, the females were checked daily until the presence of a vaginal plug was confirmed (this time point was then defined as day 0.5 of pregnancy). The mice were sacrificed 15 days post-conception. Uteri were dissected and the frequency of fetal resorption was determined as the number of resorptions divided by total number of formed fetuses and resorptions. Resorption sites, resulting from the loss of a previously viable fetus, are easily identifiable by visual inspection.
Mice were mated as described above, and sacrificed on day 8.5 post-conception. Sections of decidual tissue from CBA/J×Balb/c were incubated with an antibody to mouse C3, and followed by rabbit anti-goat IgG conjugated with HRP (horseradish peroxidase) and staining.
This experiment was carried out to investigate if blockade of complement activation would prevent fetal loss in the murine model of miscarriage. In these experiments, DBA/2-mated CBA/J pregnant mice were treated with three different targeted inhibitors of complement activation.
Crry-Ig. Complement receptor 1-related gene/protein y (Crry) inhibits C3 convertase activity. The Crry used in the experiments was Crry-Ig, which is a recombinant soluble form of Crry fused to the hinge, CH2, and CH3 domains of mouse IgG1, prepared as described in Quigg et al., J Immunol 1998;160:4553-4560. Crry-Ig blocks activation of C3 by both the classical and alternative pathways, thereby preventing all complement effector activities. Pregnant DBA/2-mated CBA/J mice were treated with 3 mg Crry-Ig, administered i.p. on days 8, 10 and 12.
Monoclonal anti-C5 mAb. Also tested was an antibody against C5, which prevents the cleavage of C5. […]
To inhibit factor B, mice were injected on days 7 through 13 of pregnancy with mAb1379 (2 mg intraperitoneally) or with murine IgG as a control. Fetal resorption frequency was calculated on day 15 of pregnancy.

[2] = test system: pregnant mice treated with aPL-IgG; experiment: aPL antibody-induced pregnancy loss, murine pregnancy model of APS
[3] = test system: C3 deposition in decidual tissue; experiment: Immunohistochemistry of deciduas (C3, human IgG, granulocytes); conditions: aPL-IgG treated mice that also received the agent
Source text: (§1) Immunohistochemistry. […] Sections were counterstained with hematoxylin.
as §1

[4] = mice given aPL-IgG 10 mg i.p. days 8 and 12 plus the agent

AcPhe(L-ornithine-Pro-D-cyclohexylalanine-Trp-Arg) [C5aR-AP]
fetal resorption rate ([1]; DBA/2-mated CBA/J mice, 100 μg i.p. on day 8, sacrificed day 15): about 7% | fetal loss / pregnancy loss ([1]; DBA/2-mated CBA/J mice, inhibitor i.p. during pregnancy, fetal resorption day 15): prevented fetal loss | fetuses and resorptions in uterus ([1]; uterus from treated DBA/2-mated CBA/J mouse, day 15): 6 larger fetuses with decidua and no resorptions | aPL antibody-induced growth restriction [2, 4]: prevented | aPL antibody-induced pregnancy loss (fetal resorption) [2, 4]: prevented | frequency of fetal resorption in the absence of aPL antibodies ([2]; mice that received NH-IgG / no aPL antibodies): had no effect | C3 deposition in decidual tissue [3]: minimal C3 deposition | neutrophil infiltration / inflammation in deciduas [3]: no evidence of inflammation
